{
  "source": "paper PMC8165693",
  "about": "“Sensing Enzyme Activation Heat Capacity at the Single-Molecule Level Using Gold-Nanorod-Based Optical Whispering Gallery Modes” (ACS Applied Nano Materials, 2021)",
  "key": {"[1]": {"target": "T1, maltose-inducible α-glucosidase (MalL) (Bacillus subtilis, UniProt O06994)", "T1 construct": "full-length, recombinant, purified as in earlier work", "assay": "ensemble steady-state kinetics, colorimetric assay in solution", "type": "biochemical", "settings": "free enzyme in solution; temperature of this constant not given", "from_the_text": "ensemble steady-state kinetics, colorimetric assay in solution on maltose-inducible α-glucosidase (MalL) | both the KM and ΔCP^‡ values are similar between WT MalL and S135C MalL"}, "[2]": {"target": "T2, maltose-inducible α-glucosidase (MalL) (Bacillus subtilis, UniProt O06994, S135C)", "T2 construct": "full-length, recombinant, purified as in earlier work", "T2 sequence (O06994 whole entry S135C)": "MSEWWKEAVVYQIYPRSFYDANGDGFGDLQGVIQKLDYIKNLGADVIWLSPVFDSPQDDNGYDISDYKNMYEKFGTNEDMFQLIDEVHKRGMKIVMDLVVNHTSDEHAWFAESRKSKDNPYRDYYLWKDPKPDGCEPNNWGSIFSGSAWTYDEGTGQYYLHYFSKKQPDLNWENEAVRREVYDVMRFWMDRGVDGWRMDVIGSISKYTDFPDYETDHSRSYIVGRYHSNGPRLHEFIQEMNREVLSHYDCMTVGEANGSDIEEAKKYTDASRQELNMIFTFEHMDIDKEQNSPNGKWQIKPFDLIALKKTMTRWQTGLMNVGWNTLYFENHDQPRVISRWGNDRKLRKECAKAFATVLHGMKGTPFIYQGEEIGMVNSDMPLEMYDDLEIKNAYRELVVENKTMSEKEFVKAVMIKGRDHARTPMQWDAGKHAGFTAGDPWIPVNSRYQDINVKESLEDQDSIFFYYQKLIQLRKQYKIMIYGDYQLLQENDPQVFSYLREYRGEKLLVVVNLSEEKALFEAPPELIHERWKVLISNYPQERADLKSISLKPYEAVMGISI", "assay": "ensemble steady-state kinetics, colorimetric assay in solution", "type": "biochemical", "settings": "free enzyme in solution; temperature of this constant not given"}},
  "data": [
    {"substance": "4-nitrophenyl-β-D-glucopyranoside", "values": [
      {"measurement": "Km", "setting": "[1]", "result": "108 ± 34.2", "unit": "µM"},
      {"measurement": "Km", "setting": "[2]", "result": "141 ± 39.6", "unit": "µM"}
    ]}
  ]
}
